In patent US20040152868A1, “Compositions and methods for modulating guanylyl cyclase signaling receptor (gc-c) activity and for treating meniere's disease” (priority 2001, published 2004):
Where two headings read alike, the source gives them in different places. Bridge positions count the residues as written; N and C are the ends. Square brackets hold non-standard residues; d marks the D form. Ends that are not written are not given here. Peptide text beside a SMILES is read from it. 2Nal = N[C@@H](Cc1ccc2ccccc2c1)C(=O)O

What was measured:
[1] = otoacoustic emission (DP-gram) in rats after 14 days i.p. infusion; type: in vivo, rat
Method: In this example, rats were given 8 nmol/kg/h of Compound 1 intraperitoneally for 14 days via Alzet osmotic pumps. Otoacoustic emissions were measured before treatment and at the end of treatment. Urine samples were collected during infusion, and the natriuretic effect of Compound 1 was measured by flame spectroscopy.
18 female Sprague-Dawley rats weighing 250 g each were divided into two groups. In total, 8 control animals received vehicle and 10 animals received COMPOUND 1. During the experiment the animals had free access to food and water.
Prior to the study COMPOUND 1 was dissolved in 50 mM phosphate buffer pH 4.0 containing 1% BSA and loaded into Alzet osmotic pumps. The pumps were then surgically inserted into the peritoneum of the rats administering 8 nmol/kg/h for 14 days. After insertion of the pumps the animals were placed in metabolic cages for a week, and samples of urine were collected every 24 hrs from Day 0 through Day 6.
The rats were all tested before the start of the study and at the end of the study. […]
The only DPOAE measured were the amplitude of cubic distortion product 2f1-f2, and always with the level of f1 (L1) 10 dB higher than the level of f2 (L2=L1-10 dB). The output of the ER-10B microphone was feed to a B&K (Nexus) amplifier and analysed on an HP 35670A spectrum. […]

[2] = biological target: T1, guanylyl cyclase (GC-C) receptor (Homo sapiens, UniProt P25092); experiment: cGMP-efficacy on T84 cells (stimulation of cGMP formation); type: cell-based; settings: cGMP formation in T84 cells; for EC50: efficacy assay of Example 1
T1 construct: stimulation of cGMP in T84 cell cultures may be used as an efficacy assay; endogenous in cells; host or cells: T84 (human colon carcinoma cell line)
Method: T84 cells are grown to near confluence in DMEM medium and Ham's F-12 medium (1:1) supplemented with 5% Foetal Calf Serum (FCS), […] in 175 cm^2 culture flasks (Nunc) at 37° C., 5% CO2 and 100% humidity. Cells are harvested in ice-cold PBS and centrifuged at 100×G for 10 min at 4° C. The sedimented cells are lysed in 2.5 ml dist. H2O/culture flask at 0° C. for 30 min and centrifuged at 50,000×G 4° C. for 45 min. The membrane pellet is taken up in binding buffer (50 mM HEPES, 1 mM EDTA, 10 mM MgCl2, pH 7.4) supplemented with 10% sucrose and stored at −80° C. until use.
For stimulation of cGMP formation, cells are seeded in 96-well microtiter plates (Nunc) at a density of 2500 cells/well (˜7576 cells/cm^2) and grown for 3 days before use under the same culture conditions mentioned above.
On the day of analysis growth medium is removed and the T84 cells are washed twice in Dulbeccos Phosphate Buffered Saline™ (D-PBS) containing 6 mM glucose at 37° C. Cells are then incubated at 37° C. for 40 min in the same medium supplemented with 2 mM IBMX (a phosphodiesterase inhibitor) and increasing concentrations of test compounds. The reaction is stopped by addition of ice-cold 20 μl 0.50 M HCl and incubation on ice for further 20 min. 20 μl of the acid extract is used for determination of cGMP by the FlashPlate™ technique and another 20 μl is used for determination of protein content.
Data from the cGMP experiments are treated in an analogueous way and fitted to:
f=(cGMPmax−cGMPbasic)*s/(s+EC50)+cGMPbasic
where cGMPmax is maximal obtainable cGMP and cGMPbasic is the basic level of cellular cGMP. EC50 is the concentration giving half maximum effect and s the concentration of test compound. […]

[3] = standard diuresis assay / renal clearance in conscious rats with arterial pressure and heart rate recording; type: in vivo, rat
Method: Male Sprague-Dawley rats weighing 350-370 g (M&B, Denmark) were anaesthetized with a subcutaneous injection of 2 ml/kg of a 1:1 mixture of Hypnorm® (fentanyl citrate 0.315 mg/ml and fluanisone 10 mg/ml) and Dormicum® (midazolam 5 mg/ml) diluted 1:1 in distilled water. Permanent catheters were inserted into the femoral vein and artery. The i.v. line is used for i.v. infusion and the arterial line is used for continuous intra-arterial blood pressure recording and withdrawal of blood samples. A permanent supra-pubic catheter was inserted into the urinary bladder, which allowed fractionated urine collection and determination of urine flow rate. Animals were allowed about one week of recovery before they were used for experiments.
On the day of the experiment, the rat was placed in a lucid restrainer. […] To obtain a stable urine production under these conditions, the rat was slightly water loaded by i.v. infusion of a hypotonic glucose solution (150 mM glucose; 100 μl/min the first 15 min, then 25 μl/min throughout the experiment). The arterial line was connected to a pressure transducer (Baxter Truware: PX-260 Uden, Netherlands) and the pulsatile arterial blood pressure was amplified (×1.000-10.000) via a Hugo Sachs Electronic Tranducer Amplifier Module model 705/1. The analogue signal was digitalized via a 12 bit data acquisition board (Data Translation model DT321) and sampled at 1000 Hz using the Notocord HEM version 4 software for Windows NT. The systolic peak pressure triggered a software heart rate module that calculated heart rate beat-to-beat.
After a 60 minutes equilibration period, fractionated collection of urine was started (t=0). After 4 control periods (4×15 minutes), a bolus injection of Mouse-Guanylin-Asp—OH, 10 μmol/kg i.v was administered and collection of urine was collected in 15 minute periods for 3 hours (period […]). Urine volume was measured gravimetrically. The urine samples were stored at −20° C. until further analysis. Urine was analysed for sodium and potassium using a using a flame spectrophotometer (Instrumentation Laboratory, model IL 943).

[4] = rat, in vivo; cited from earlier work
[5] = biological target: T1, guanylyl cyclase (GC-C) receptor; settings: T84 cells, reported values; cited from earlier work

T1 sequence (P25092 24-1073): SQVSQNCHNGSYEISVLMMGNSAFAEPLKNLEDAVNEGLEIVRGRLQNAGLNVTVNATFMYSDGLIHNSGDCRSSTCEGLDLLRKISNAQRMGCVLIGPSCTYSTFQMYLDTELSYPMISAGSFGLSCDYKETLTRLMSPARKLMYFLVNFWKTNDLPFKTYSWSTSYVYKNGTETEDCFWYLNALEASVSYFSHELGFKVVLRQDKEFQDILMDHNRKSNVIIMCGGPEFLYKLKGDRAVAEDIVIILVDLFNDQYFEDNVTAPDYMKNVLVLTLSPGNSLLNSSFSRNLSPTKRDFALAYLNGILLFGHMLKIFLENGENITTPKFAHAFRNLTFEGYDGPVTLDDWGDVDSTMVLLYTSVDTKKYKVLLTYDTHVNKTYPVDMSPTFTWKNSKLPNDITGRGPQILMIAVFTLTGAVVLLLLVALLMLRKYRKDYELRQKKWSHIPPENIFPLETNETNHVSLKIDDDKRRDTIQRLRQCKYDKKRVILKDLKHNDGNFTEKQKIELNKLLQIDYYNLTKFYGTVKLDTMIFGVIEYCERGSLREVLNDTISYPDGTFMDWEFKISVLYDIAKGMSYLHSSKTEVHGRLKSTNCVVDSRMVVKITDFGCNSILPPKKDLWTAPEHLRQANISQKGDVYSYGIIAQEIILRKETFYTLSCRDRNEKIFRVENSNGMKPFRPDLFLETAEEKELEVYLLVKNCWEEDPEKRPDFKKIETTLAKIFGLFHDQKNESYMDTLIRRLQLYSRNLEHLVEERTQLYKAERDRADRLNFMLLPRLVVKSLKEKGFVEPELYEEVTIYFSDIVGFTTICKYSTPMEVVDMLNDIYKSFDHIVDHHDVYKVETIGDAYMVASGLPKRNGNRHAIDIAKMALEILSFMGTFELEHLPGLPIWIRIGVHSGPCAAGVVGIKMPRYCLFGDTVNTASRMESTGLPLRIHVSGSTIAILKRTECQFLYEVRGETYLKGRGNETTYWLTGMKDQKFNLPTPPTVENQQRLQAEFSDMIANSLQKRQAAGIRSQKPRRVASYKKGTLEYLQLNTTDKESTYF

Compound: CC[C@H](C)[C@@H]1NC(=O)[C@H](CCC(=O)O)NC(=O)[C@@H](NC(=O)[C@@H](NC(=O)[C@H](CC(N)=O)NC(=O)[C@@H]2CCCN2)[C@@H](C)O)CSSC[C@@H]2NC(=O)[C@H](C)NC(=O)[C@H](C)NC(=O)[C@H](Cc3ccc(O)cc3)NC(=O)[C@H](C)NC(=O)[C@H](CSSC[C@@H](C(N)=O)NC(=O)CNC(=O)[C@H]([C@@H](C)O)NC2=O)NC1=O [Compound 1, Mouse-Guanylin-NH2, H-PNTC*EICAYAAC*TGC-NH2 (double oxidised C to C and C* to C*)] (H-PNTCEICAYAACTGC-NH2; disulfide 4-12, 7-15)
- otoacoustic emission at 14 to 16 kHz ([1]; 8 nmol/kg/h intraperitoneally for 14 days via Alzet osmotic pumps): significant decrease
- change in otoacoustic emission from before to after treatment (2-way ANOVA) ([1]; 14 days, most pronounced at the 14 kHz level): significant decrease
- EC50 ([2]; read-out: EC50): 6.1 µM

Compound: CC[C@H](C)[C@@H]1NC(=O)[C@H](CCC(=O)O)NC(=O)[C@@H](NC(=O)[C@@H](N)[C@@H](C)O)CSSC[C@@H]2NC(=O)[C@H](C)NC(=O)[C@H](C)NC(=O)[C@H](Cc3ccccc3)NC(=O)[C@H](C)NC(=O)[C@H](CSSC[C@@H](C(=O)N[C@@H](CC(C)C)C(N)=O)NC(=O)CNC(=O)[C@H]([C@@H](C)O)NC2=O)NC1=O [Compound 5, des-Pro^1, des-Asn^2[Phe^9]Guanylin-L-NH2 (rat/mouse)] (H-TCEICAFAACTGCL-NH2; disulfide 2-10, 5-13 (inferred))
- EC50 ([2]; read-out: EC50): 28 µM

Compound: CC[C@H](C)[C@@H]1NC(=O)[C@H](CCC(=O)O)NC(=O)[C@@H](NC(=O)[C@@H](N)[C@@H](C)O)CSSC[C@@H]2NC(=O)[C@H](C)NC(=O)[C@H](C)NC(=O)[C@H](Cc3ccc4ccccc4c3)NC(=O)[C@H](C)NC(=O)[C@H](CSSC[C@@H](C(=O)N[C@@H](CC(C)C)C(N)=O)NC(=O)CNC(=O)[C@H]([C@@H](C)O)NC2=O)NC1=O [Compound 6, des-Pro^1, des-Asn^2[2-Nal^9]Guanylin-L-NH2 (rat/mouse)] (H-TCEICA[2Nal]AACTGCL-NH2; disulfide 2-10, 5-13)
- EC50 ([2]; read-out: EC50): > 100 µM

Compound: CC[C@H](C)[C@@H]1NC(=O)[C@H](CCC(=O)O)NC(=O)[C@@H](NC(=O)[C@@H](N)[C@@H](C)O)CSSC[C@@H]2NC(=O)[C@H](C)NC(=O)[C@H](C)NC(=O)[C@H](Cc3ccc(O)cc3)NC(=O)[C@H](C)NC(=O)[C@H](CSSC[C@@H](C(=O)N[C@@H](CC(C)C)C(=O)N[C@@H](CCCCN)C(=O)N[C@@H](CCCCN)C(N)=O)NC(=O)CNC(=O)[C@H]([C@@H](C)O)NC2=O)NC1=O [Compound 8, des-Pro^1, des-Asn^2Guanylin-LKK-NH2 fully oxidised(1-3, 2-4) (rat/mouse): H-TCEICAYAACTGCLKK-NH2 oxidised(1-3, 2-4)] (H-TCEICAYAACTGCLKK-NH2; disulfide 2-10, 5-13)
- EC50 ([2]; read-out: EC50): 29 µM

Compound: Cyclo(Gly-Glu-Ile-Gly-Ala-Tyr-Ala-Ala-Gly-Thr-Gly-Gln-) (GEIGAYAAGTGQ; cyclic; printed: Gly-Glu-Ile-Gly-Ala-Tyr-Ala-Ala-Gly-Thr-Gly-Gln-) [Compound 4]
- EC50 [2]: No effect

Compound: Guanylin-Asp-Lys6-NH2 (rat/mouse) [Compound 12]
- agonist character at GC-C [2]: potent agonist

Compound: Mouse-Guanylin-Asp-OH [Compound 13]
- effect on heart rate ([3]; conscious rats, 10 μmol/kg i.v.): no effect
- increase in mean arterial blood pressure ([3]; conscious rats, 10 μmol/kg i.v. bolus, immediate and sustained): 15-20 mmHg
- effect on urinary potassium excretion rate ([3]; rats, 10 μmol/kg i.v.): rapid and transient increase
- effect on urinary sodium excretion rate ([3]; rats, 10 μmol/kg i.v.): immediate and sustained increase
- effect on urine flow rate ([3]; rats, 10 μmol/kg i.v.): rapid and transient increase

Compound: SPNFIWK [Compound 3, H-Ser-Pro-Asn-Phe-Ile-Trp-Lys—NH2]
- EC50 [2]: No effect

Compound: des-Pro^1, des-Asn^2Guanylin-LKK-NH2 mono oxidised(1-3) (rat/mouse) [Compound 7]
- EC50 [2]: No effect

Compound: guanylin (PGTCEICAYAACTGC; ends and bridges not checked; cysteine pairing not given here; UniProt Q02747 101-115, looked up)
- diuretic, natriuretic and kaliuretic effect [4]: substantial diuretic, natriuretic and kaliuretic effect
- increase in cGMP production reported [5]: 300 fold

Compound: uroguanylin (NDDCELCVNVACTGCL; ends and bridges not checked; cysteine pairing not given here; UniProt Q16661 97-112, looked up) [synthetic uroguanylin, member of the guanylin peptide family]
- increase in cGMP production reported [5]: 300 fold
